From PMC4055232 (Malaria Journal, 2014)
Where two headings read alike, the source gives them in different places. Marks after values point to notes of the source that are not given here.

Columns and labels:
[1] = Pharmacokinetics of probe drug cocktail (bupropion, midazolam) and their metabolites before and after QHS-PQ; assay type: in vivo, human; conditions: for Geometric mean ratio (90% CI) of AUC 0-t /dose / Geometric mean ratio (90% CI) of C max / Geometric mean ratio (90% CI) of CL/F / Geometric mean ratio (90% CI) of MRT: 2-day (after QHS-PQ) versus 1-day (day -14); for AUC 0-t /dose: mean ± sd; for T max / Tmax: value (range)
Description: The chromatography was performed at 22°C. The mobile phase consisted of B (acetonitrile) and A (0.1% formic acid in water), which increased linearly from 20% B to 90% B during 7 min before column re-equilibration at a flow rate of 0.3 mL/min.
Plasma samples were subjected to a protein precipitation extraction process. A 100 μL aliquot of human plasma was mixed with 25 μL of acetonitrile and 200 μL of IS (1 μM of alprazolam, prepared in acetonitrile). The mixture was mixed and centrifuged at 3,000 g for 10 min. Aliquots (20 μL) of the solution were injected onto LC-MS analysis. […] This mixture was treated as above. […] Plasma samples were diluted with blank plasma and reanalysed when the concentration of any analyte was higher than the upper limit of quantification.
Venous blood samples (2 mL) for analysis of probe drugs and their metabolites were taken from an indwelling intravenous catheter at 0, 0.25, 0.75, 1.5, 2.0, 3.0, 4.0, 5.0, 7.0, 11.0, 24.0, 36.0, and 48.0 hours.
(§1) The peak plasma concentration (Cmax) and time-to-peak concentration (Tmax) were obtained from experimental observations. The other pharmacokinetic parameters were analysed by non-compartmental model using the program TOPFIT (version 2.0; Thomae GmbH, Germany). The area under the plasma concentration-time curve (AUC o-t ) was calculated using the linear trapezoidal rule to approximately the last point. The mean residence time (MRT) was obtained by dividing the area under the first moment-time curve (AUMC 0-t ) by the area under the curve (AUC 0-t ). Total oral body clearance (CL/F) was calculated as dose/AUC 0-t .
(§2) Results were expressed as mean ± SD. The two-tailed t-test was used for paired comparison of the pharmacokinetic parameters between the single dose and multiple doses after logarithmic transformation. Geometric mean ratios with 90% confidence intervals (CIs) were calculated after log transformation of within-subject data. The comparison of Tmax for the different treatment groups was performed using the Wilcoxon signed-rank test. The acceptable level of significance was established at P < 0.05 or P < 0.01.

[2] = system: PXR; conditions: cited from earlier work
[3] = Bench-top stability of QC samples in human plasma on ice; assay type: in vitro ADME; conditions: human plasma on ice for at least 2 hours; difference < 15%
[4] = system: CAR1/3; conditions: cited from earlier work
[5] = Pharmacokinetics of QHS and its phase I/II metabolites in plasma after oral QHS-PQ (Artequick); conditions: for AUC 0-t /dose / Cmax / MRT / CL/F: mean ± sd; for Cmax / MRT / Tmax: in vivo; for Cmax: C max; for Tmax: T max
Description: The chromatography was performed at 22°C. The mobile phase consisted of acetonitrile and 5 mM aqueous ammonium acetate containing 0.1% (v/v) formic acid, delivered at a flow rate of 0.35 mL/min. The gradient chromatographic conditions were shown in the previous report. The autosampler was set at 4°C.
Plasma samples were subjected to a protein precipitation extraction process, which was performed on ice. A 100 μL aliquot of human plasma was mixed with 25 μL of acetonitrile and 200 μL of IS (1 μM of ARM, prepared in acetonitrile). The mixture was mixed and centrifuged at 3,000 g for 10 min. Aliquots (20 μL) of the solution were injected onto LC-MS analysis. […] This mixture was treated as above.
Plasma was separated by centrifugation at 3,000 g for 10 min at 4°C. The plasma was stored at -80°C until analysis.
as §1, §2

[6] = cited from earlier work
[7] = listed as '1-day': oral probe cocktail (bupropion 75 mg, midazolam 15 mg) on day -14, before QHS-PQ
[8] = listed as '1-day': probe cocktail before QHS-PQ (day -14)
[9] = listed as '2-day': probe cocktail 1 hour after second oral dose of QHS-PQ (day 2)
[10] = listed as '2-day': probe cocktail after second dose of QHS-PQ
[11] = human, plasma, oral, row '1-day': probe cocktail before QHS-PQ (day -14)
[12] = human, plasma, oral, row '1-day': probe cocktail before QHS-PQ (day -14), read-out: CL/F (converted)
[13] = human, plasma, oral, row '1-day': probe cocktail before QHS-PQ (day -14), read-out: MRT
[14] = human, plasma, oral, row '2-day': probe cocktail after second dose of QHS-PQ
[15] = human, plasma, oral, row '2-day': probe cocktail after second dose of QHS-PQ, read-out: CL/F (converted)
[16] = human, plasma, oral, row '2-day': probe cocktail after second dose of QHS-PQ, read-out: MRT
[17] = human, po, 2-day oral QHS-PQ, value (range)

In the case of `OCc1ncc2n1-c1ccc(Cl)cc1C(c1ccccc1F)=NC2` [OH-MDZ, α-hydroxymidazolam], the “Geometric mean ratio (90% CI) of AUC 0-t /dose” value [1] is reported as 4.99 (4.66, 5.33)**, the “Geometric mean ratio (90% CI) of C max” value [1] is reported as 2.95 (2.44, 3.56)** and the “Geometric mean ratio (90% CI) of CL/F” value [1] is reported as 0.19 (0.18, 0.21)**. The “Geometric mean ratio (90% CI) of MRT” value [1] was 1.14 (1.01, 1.28), the “AUC 0-t /dose” value [1, 7] was 0.32 ± 0.09 kg·h/L and the CL/F [1, 8] was 55.2 ± 14 mL/min/kg. The Cmax [1, 8] was 82.3 ± 50.3 nM, the MRT [1, 8] was 3.7 ± 1.0 h and the T max [1, 8] was 1.1 (0.3, 2.0) h. The “AUC 0-t /dose” value [1, 9] was 1.60 ± 0.26** h·kg·L^-1, the CL/F [1, 10] was 10.7 ± 1.83 mL/min/kg and the Cmax [1, 10] was 243 ± 82 nM. For the same molecule, the MRT [1, 10] was 4.2 ± 0.5 h and the T max [1, 10] was 1.5 (0.8, 3.0) h.
`Cc1ncc2n1-c1ccc(Cl)cc1C(c1ccccc1F)=NC2` [MDZ, midazolam] showed a Cmax [1, 11] of 206 ± 115 nM, a Tmax [1, 11] of 1.3 h and a CL/F [1, 12] of 18.2 mL/min/kg. The MRT [1, 13] was 4.1 ± 0.7 h, the Cmax [1, 14] was 305 ± 115 nM and the Tmax [1, 14] was 0.8 h. For the same molecule, the CL/F [1, 15] was 11.7 mL/min/kg and the MRT [1, 16] was 4.2 ± 0.7 h.
With (±)-hydroxybupropion [OH-BUP] the “Geometric mean ratio (90% CI) of AUC 0-t /dose” value [1] was 2.05 (1.83, 2.30)**, the “Geometric mean ratio (90% CI) of C max” value [1] was 1.65 (1.51, 1.82)** and the “Geometric mean ratio (90% CI) of CL/F” value [1] was 0.49 (0.43, 0.55)**. The “Geometric mean ratio (90% CI) of MRT” value [1] was 1.04 (1.00, 1.07), the “AUC 0-t /dose” value [1, 7] was 3.98 ± 1.45 kg·h/L and the CL/F [1, 8] was 4.83 ± 1.83 mL/min/kg. The Cmax [1, 8] was 518 ± 162 nM, the MRT [1, 8] was 19.4 ± 1.4 h and the T max [1, 8] was 5.2 (3.0, 11.0) h. For the same molecule, the “AUC 0-t /dose” value [1, 9] was 8.22 ± 3.43** h·kg·L^-1, the CL/F [1, 10] was 2.33 ± 0.83 mL/min/kg and the Cmax [1, 10] was 857 ± 245 nM. For the same molecule, the MRT [1, 10] was 20.2 ± 1.5 h and the T max [1, 10] was 7.6 (3.0, 24.0) h.
For `C[C@@H]1CC[C@H]2[C@@H](C)C(=O)O[C@@H]3O[C@@]4(C)CC[C@@H]1[C@]32O4` [DeoxyQHS, Deoxyartemisinin], the “activity at PXR” value [2] is given as “agonist”, the stability in plasma [3] is given as “stable” and the “activity at CAR1/3” value [4] is given as “agonist”. The “AUC 0-t /dose” value ([5]; 1-day (first oral dose of QHS-PQ, 1.8 mg/kg QHS plus 10.6 mg/kg piperaquine), 14 healthy Chinese, plasma) was 0.09 ± 0.05** h·kg·L^-1, the T max ([5]; 1-day oral QHS-PQ, value (range)) was 2.2 (1.25, 4.0) h and the “AUC 0-t /dose” value ([5]; 2-day (second daily oral dose of QHS-PQ)) was 0.06 ± 0.04** h·kg·L^-1. For the same molecule, the “Geometric mean ratio (90% CI) of AUC 0-t /dose” value ([5]; 2-day versus 1-day oral QHS-PQ) was 0.68 (0.58, 0.79)**, the “Geometric mean ratio (90% CI) of AUC M /AUC QHS” value ([5]; 2-day versus 1-day oral QHS-PQ) was 1.18 (0.97, 1.43) and the “Geometric mean ratio (90% CI) of C max” value ([5]; 2-day versus 1-day oral QHS-PQ) was 0.78 (0.69, 0.89)*. The “Geometric mean ratio (90% CI) of CL/F” value ([5]; 2-day versus 1-day oral QHS-PQ) was 1.68 (1.45, 1.95)**, the “Geometric mean ratio (90% CI) of MRT” value ([5]; 2-day versus 1-day oral QHS-PQ) was 0.89 (0.79, 0.99) and the “change of Tmax and MRT after repeated drug dosing” value ([5]; P > 0.05) was “did not change”. For the same molecule, the Cmax ([5]; human, po, 1-day oral QHS-PQ) was 71 ± 46.1 nM, the Cmax ([5]; human, po, 2-day oral QHS-PQ) was 55.6 ± 33.3 nM and the MRT ([5]; human, po, 1-day oral QHS-PQ) was 7.1 ± 0.6 h. It also gave an MRT ([5]; human, po, 2-day oral QHS-PQ) of 6.2 ± 1.5 h, a Tmax ([5]; human, po, 1-day oral QHS-PQ, value (range)) of 1.3 to 4 h and a Tmax [5, 17] of 2.3 h. For the same molecule, the “decrease in AUC 0-t after multiple oral doses” value ([5]; in 13 out of 14 subjects, range 20.3-71.8%) was 34.7%, the “decrease of metabolic capability AUCdeoxy-QHS/AUCQHS after the second dose” value ([5]; in four subjects) was 41.6% and the “increase of metabolic capability AUCdeoxy-QHS/AUCQHS after the second dose” value ([5]; in six subjects) was 1.6 fold. For the same molecule, the “increase of CL/F after the second dose” value ([5]; second versus first oral dose of QHS-PQ) was 1.7 fold.
For `C[C@@H]1CC[C@H]2[C@@H](C)C(=O)O[C@@H]3O[C@@]4(C)CC[C@@H]1[C@]32OO4` [QHS, Artemisinin, reference compound], the “dose-normalized AUC, reported range” value ([6]; healthy subjects and patients who received 500 mg of QHS) is given as 0.06 to 0.31 kg·h/L, the “dose-normalized AUC, reported range” value ([6]; infected children, dose […]) is given as 0.33 to 0.49 kg·h/L and the stability in plasma [3] is given as “stable”. The CL/F ([5]; 1-day oral QHS-PQ, dose/AUC0-t) was 164 ± 138 mL/min/kg, the “change of Cmax, Tmax and MRT after repeated drug dosing” value ([5]; P > 0.05) was “did not change” and the “inter-individual variability (%CV) for AUC 0-t” value ([5]; after the first dose, range 6.9-122.7%) was 43.5%. It also gave a Cmax ([5]; human, po, 1-day oral QHS-PQ) of 304 ± 192 nM, a Cmax ([5]; human, po, 2-day oral QHS-PQ) of 221 ± 118 nM and an MRT ([5]; human, po, 1-day oral QHS-PQ) of 3.2 ± 0.9 h. For the same molecule, the MRT ([5]; human, po, 2-day oral QHS-PQ) was 2.9 ± 0.9 h, the Tmax [5, 17] was 1.4 h and the CL/F ([5]; human, plasma, po, CL/F, 1-day oral QHS-PQ, dose/AUC0-t) was 163 mL/min/kg. For the same molecule, the CL/F ([5]; human, plasma, po, CL/F, 2-day oral QHS-PQ) was 277 mL/min/kg and the “decrease in AUC 0-t, second oral dose compared with the first dose” value ([5]; oral QHS-PQ, two consecutive days) was 35.2%.
In the case of `CC(NC(C)(C)C)C(=O)c1cccc(Cl)c1` (centres unmarked) [BUP, Bupropion], the Cmax [1, 11] is reported as 328 ± 181 nM, the Tmax [1, 11] is reported as 2.1 h and the CL/F [1, 12] is reported as 62.2 mL/min/kg. The MRT [1, 13] was 6.8 ± 1.9 h, the Cmax [1, 14] was 306 ± 147 nM and the Tmax [1, 14] was 2.5 h. The CL/F [1, 15] was 63 mL/min/kg and the MRT [1, 16] was 6.1 ± 1.7 h.
